≈ marks a conversion by molar mass, not a printed value. Like-named read-outs stand apart in the source and are kept apart here.
How the values were obtained:
[1] = system: Sphaerotheca fuliginea; experiment: Foliar protection for cucumber powdery mildew control; format: in vivo; settings: foliar spray on Cucumis sativus cv. Straight Eight, inoculated 24 hours after treatment, evaluated 7 days later
Procedure: Plants (Cucumis sativus cv. Straight Eight) were grown for 10 days in 2.5-inch square pots containing Metromix 200 medium amended with fertilizer. For propagation, plants were maintained in a growth chamber at conditions of 23 to 27° C., 16 hour light cycle, ambient humidity, and with sub-irrigation as needed. After inoculation with the pathogen of Sphaerotheca fuliginea, plants were kept at conditions of 23 to 27° C., 16 hour light cycle, 60% relative humidity, and with sub-irrigation as needed to facilitate infection and disease development. […] An atomizer was used for applying the solution onto both sides of the leaves until thoroughly wetted. […] At 24 hours after treatment, the plants were moved to a cooler chamber and inoculated by shaking well-colonized, untreated stock plants above the treated plants. This allowed producing a settling cloud of spores and resulting in uniform infection. Inoculated plants were kept near other sporulating stock plants to allow for infection of newly emerging leaves. Efficacy was evaluated in 7 days later by examining leaves for colonization and growth of mildew. Table 5 lists the results of cucumber powdery mildew control at a compound concentration of 10 ppm or lower.

[2] = system: Fusarium virguliforme (Fv); experiment: In vitro pathogen growth inhibition assay, Fv; format: cell-based
Method in brief: (§1)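 Value reported is the compound concentration reaching ≥90% growth inhibition, from OD readings at 24 and 48 h after blank subtraction, confirmed visually. Inoculum was spores diluted in 17% V8 medium, except Rs, using 1.5 mm mycelial plugs in ¼ PDB; actual compound concentration corrected via OD600.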

[3] = system: Blumeria graminis f. sp. hordei; experiment: Foliar protection test for barley powdery mildew control; format: in vivo; settings: foliar spray on Hordeum vulgare cv. Perry, inoculated 24 hours after treatment, evaluated 7 days later
Procedure: Plants (Hordeum vulgare cv. Perry) were grown for 6 days in 2-inch square pots containing Metromix 200 medium amended with fertilizer. […] After inoculation with the pathogen of Blumeria graminis f. sp. hordei, plants were kept at conditions of 20 to 22° C., 70% relative humidity, and 200 uM of light to facilitate infection and disease development. […] An atomizer was used for applying the solution onto both sides of the leaves until thoroughly wetted. […] At 24 hours after treatment, the plants were moved to a cooler chamber and inoculated by shaking well-colonized, untreated stock plants above the treated plants. This allowed producing a settling cloud of spores and resulting in uniform infection. Efficacy was evaluated in 7 days later by examining leaves for colonization and growth of mildew. Table 4 lists the results of barley powdery mildew control at a compound concentration of 10 ppm or lower.

[4] = system: Fusarium moniliforme (Fm); experiment: In vitro pathogen growth inhibition assay, Fm; format: cell-based; settings: Fusarium verticillioides
Method in brief: (§2)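 Spores in 17% V8 liquid medium, or 1.5 mm Rs mycelial plugs in ¼ PDB, incubated with compound; final concentration checked by OD600 for precipitation. OD readings at 24 and 48 h, blank-subtracted, plus visual ratings; value is concentration giving ≥90% growth inhibition.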

[5] = system: Puccinia triticina; experiment: Foliar protection test for wheat leaf rust control; format: in vivo; settings: foliar application to wheat (Triticum aestivum cv. Winterhawk), evaluated 10 days later
[6] = system: Collectotrichum graminicola (Cg); experiment: In vitro pathogen growth inhibition assay, Cg; format: cell-based; settings: 48 h
Method in brief: as §2

[7] = system: Septoria tritici (St); experiment: In vitro pathogen growth inhibition assay, St; format: cell-based; settings: Zymoseptoria tritici, 48 h
Method in brief: as §2

[8] = system: Phytophthora capsici (Pc); experiment: In vitro pathogen growth inhibition assay, Pc; format: cell-based; settings: 48 h
Method in brief: as §1

[9] = system: Rhizoctonia solani (Rs); experiment: In vitro pathogen growth inhibition assay, Rs (mycelial plugs); format: cell-based; settings: Rhizoctonia solani, 48 h, mycelial plugs
Method in brief: as §1

[10] = system: Botrtyis cinerea (Bc); experiment: In vitro pathogen growth inhibition assay, Bc; format: cell-based; settings: 48 h
Method in brief: as §2

[11] = system: Phakopsora pachyrhizi; experiment: Foliar protection test for Asian soybean rust control; format: in vivo; settings: foliar application to soybean (Glycine max AG4832), percent disease area evaluated 14 days later
[12] = system: Mycosphaerella graminicola (synthetic Septoria tritici); experiment: Foliar protection test for wheat septoria leaf blotch control; format: in vivo; settings: foliar spray on Triticum aestivum cv. WinterHawk, inoculated 1 hour after treatment, evaluated 16 days later
[13] = system: Diplodia maydis (Dm); experiment: In vitro pathogen growth inhibition assay, Dm; format: cell-based; settings: Stenocarpella maydis, 48 h
Method in brief: as §1

[14] = system: Fusarium graminearum; format: in vivo; settings: spray on flowering Triticum aestivum cv. Samson, inoculated 24 hours after treatment, evaluated 14 days later
[15] = ≥90% growth inhibition, 48 hours, vs 2% DMSO control, read-out: Compound Concentration (ppm) sufficient for ≥90% inhibition of Fv
[16] = ≥90% growth inhibition, 48 hours, vs 2% DMSO control, read-out: Compound Concentration (ppm) sufficient for ≥90% inhibition of Fm
[17] = ≥90% growth inhibition, 48 hours, vs 2% DMSO control, read-out: Compound Concentration (ppm) sufficient for ≥90% inhibition of Cg
[18] = ≥90% growth inhibition, 48 hours, vs 2% DMSO control, read-out: Compound Concentration (ppm) sufficient for ≥90% inhibition of St
[19] = ≥90% growth inhibition, 48 hours, vs 2% DMSO control, read-out: Compound Concentration (ppm) sufficient for ≥90% inhibition of Pc
[20] = ≥90% growth inhibition, 48 hours, vs 2% DMSO control, read-out: Compound Concentration (ppm) sufficient for ≥90% inhibition of Rs
[21] = ≥90% growth inhibition, 48 hours, vs 2% DMSO control, read-out: Compound Concentration (ppm) sufficient for ≥90% inhibition of Bc
[22] = ≥90% growth inhibition, 48 hours, vs 2% DMSO control, read-out: Compound Concentration (ppm) sufficient for ≥90% inhibition of Dm

| Compound | Cucumber Powdery Mildew Control at a compound concentration of 10 ppm or lower [1] | Barley Powdery Mildew Control at a compound concentration of 10 ppm or lower [3] | Wheat Leaf Rust Control at a compound concentration of 10 ppm or lower [5] | Asian Soybean Rust Control at a compound concentration of 25 ppm or lower [11] | Septoria Leaf Blotch Control at a compound concentration of 25 ppm or lower [12] | Wheat Fusarium Head Blight Control at a compound concentration of 25 ppm or lower [14] | IC90 [2, 15] [µg/mL] | IC90 [4, 16] [µg/mL] | IC90 [6, 17] [µg/mL] | IC90 [7, 18] [µg/mL] | IC90 [8, 19] [µg/mL] | IC90 [9, 20] [µg/mL] | IC90 [10, 21] [µg/mL] | IC90 [13, 22] [µg/mL] | other results |
| --- | --- | --- | --- | --- | --- | --- | --- | --- | --- | --- | --- | --- | --- | --- | --- |
| COc1ccc(F)cc1[C@H](Cn1c(=O)n([C@@H](C)C(=O)NC(C)C)c(=O)c2c(C)c(-n3nccn3)sc21)OCCO [Compound I-096, (S)-2-(1-((R)-2-(5-fluoro-2-methoxyphenyl)-2-(2-hydroxyethoxy)ethyl)-5-methyl-2,4-dioxo-6-(2H-1,2,3-triazol-2-yl)-1,4-dihydrothieno[2,3-d]pyrimidin-3 (2H)-yl)-N-isopropylpropanamide] | AA (≥85% control of cucumber powdery mildew) | B (from 50 to 69% control of barley powdery mildew) | A (from 70% to 84% control of wheat leaf rust) | A (from 70% to 84% control of Asian soybean rust) | B (from 50 to 69% control of wheat septoria leaf blotch) | D (<25% control of wheat fusarium head blight) |  |  |  |  |  |  |  |  | IC90 ([2]; ≥90% inhibition, 48 hours vs 2% DMSO control, read-out: Compound Concentration (ppm) sufficient for ≥90% inhibition of growth, Fv): 2 µg/mL (≈ 3.48 µM); IC90 ([4]; ≥90% inhibition, 48 hours vs 2% DMSO control, read-out: Compound Concentration (ppm) sufficient for ≥90% inhibition of growth, Fm): 0.08 µg/mL (≈ 0.139 µM); IC90 ([6]; ≥90% inhibition, 48 hours vs 2% DMSO control, read-out: Compound Concentration (ppm) sufficient for ≥90% inhibition of growth, Cg): 0.08 µg/mL (≈ 0.139 µM); IC90 ([7]; ≥90% inhibition, 48 hours vs 2% DMSO control, read-out: Compound Concentration (ppm) sufficient for ≥90% inhibition of growth, St): ≥ 2 µg/mL; IC90 ([8]; ≥90% inhibition, 48 hours vs 2% DMSO control, read-out: Compound Concentration (ppm) sufficient for ≥90% inhibition of growth, Pc): 2 µg/mL (≈ 3.48 µM); IC90 ([9]; ≥90% inhibition, 48 hours vs 2% DMSO control, read-out: Compound Concentration (ppm) sufficient for ≥90% inhibition of growth, Rs): 0.08 µg/mL (≈ 0.139 µM); IC90 ([10]; ≥90% inhibition, 48 hours vs 2% DMSO control, read-out: Compound Concentration (ppm) sufficient for ≥90% inhibition of growth, Bc): 2 µg/mL (≈ 3.48 µM); IC90 ([13]; ≥90% inhibition, 48 hours vs 2% DMSO control, read-out: Compound Concentration (ppm) sufficient for ≥90% inhibition of growth, Dm): 0.4 µg/mL (≈ 0.696 µM) |
| COCCO[C@@H](Cn1c(=O)n([C@H](C)C(=O)NC(C)C)c(=O)c2c(C)c(-n3nccn3)sc21)c1cc(F)ccc1OC [Compound I-171, (R)-2-(1-((R)-2-(5-fluoro-2-methoxyphenyl)-2-(2-methoxyethoxy)ethyl)-5-methyl-2,4-dioxo-6-(2H-1,2,3-triazol-2-yl)-1,4-dihydrothieno[2,3-d]pyrimidin-3 (2H)-yl)-N-isopropylpropanamide] | AA (≥85% control of cucumber powdery mildew) | AA (≥85% control of barley powdery mildew) | B (from 50 to 69% control of wheat leaf rust) | A (from 70% to 84% control of Asian soybean rust) | AA (≥85% control of wheat septoria leaf blotch) | C (from 25 to 49% control of wheat fusarium head blight) | ≥ 0.4 | 0.08 (≈ 0.136 µM) | 0.08 (≈ 0.136 µM) | ≥ 2 | ≥ 10 | 0.08 (≈ 0.136 µM) | 0.08 (≈ 0.136 µM) | 0.08 (≈ 0.136 µM) |  |
| CCOC(=O)c1sc2c(c1C)c(=O)n(C(C)(C)C(=O)NC(C)C)c(=O)n2C[C@H](OCCO)c1cc(F)ccc1OC [Compound I-184, (R)-ethyl-1-(2-(5-fluoro-2-methoxyphenyl)-2-(2-hydroxyethoxy)ethyl)-3-(1-(isopropylamino)-2-methyl-1-oxopropan-2-yl)-5-methyl-2,4-dioxo-1,2,3,4-tetrahydrothieno[2,3-d]pyrimidine-6-carboxylate] | AA (≥85% control of cucumber powdery mildew) | A (from 70% to 84% control of barley powdery mildew) | AA (≥85% control of wheat leaf rust) | B (from 50 to 69% control of Asian soybean rust) | C (from 25 to 49% control of wheat septoria leaf blotch) | A (from 70% to 84% control of wheat fusarium head blight) | 2 (≈ 3.37 µM) | 0.08 (≈ 0.135 µM) | 0.4 (≈ 0.674 µM) | > 50 | 50 (≈ 84.2 µM) | 0.08 (≈ 0.135 µM) | 2 (≈ 3.37 µM) | 0.4 (≈ 0.674 µM) |  |
| CCOC(=O)c1sc2c(c1C)c(=O)n(C(C)(C)C(=O)NC(C)C)c(=O)n2C[C@H](O)c1cc(F)ccc1OC [Compound I-186, (R)-ethyl-1-(2-(5-fluoro-2-methoxyphenyl)-2-hydroxyethyl)-3-(1-(isopropylamino)-2-methyl-1-oxopropan-2-yl)-5-methyl-2,4-dioxo-1,2,3,4-tetrahydrothieno[2,3-d]pyrimidine-6-carboxylate] | C (from 25 to 49% control of cucumber powdery mildew) | A (from 70% to 84% control of barley powdery mildew) | C (from 25 to 49% control of wheat leaf rust) | D (<25% control of Asian soybean rust) | D (<25% control of wheat septoria leaf blotch) | B (from 50 to 69% control of wheat fusarium head blight) | 0.08 (≈ 0.146 µM) | 0.08 (≈ 0.146 µM) | 2 (≈ 3.64 µM) | > 50 | > 50 | 0.4 (≈ 0.728 µM) | 0.4 (≈ 0.728 µM) | 2 (≈ 3.64 µM) |  |
| COc1ccc(F)cc1[C@@H](O)Cn1c(=O)n([C@H](C)C(=O)N(C)C(C)C)c(=O)c2c(C)c(-n3nccn3)sc21 [Compound I-188, (R)-2-(1-((R)-2-(5-fluoro-2-methoxyphenyl)-2-hydroxyethyl)-5-methyl-2,4-dioxo-6-(2H-1,2,3-triazol-2-yl)-1,4-dihydrothieno[2,3-d]pyrimidin-3 (2H)-yl)-N-isopropyl-N-methylpropanamide] | AA (≥85% control of cucumber powdery mildew) | AA (≥85% control of barley powdery mildew) | AA (≥85% control of wheat leaf rust) | B (from 50 to 69% control of Asian soybean rust) | C (from 25 to 49% control of wheat septoria leaf blotch) | D (<25% control of wheat fusarium head blight) | 0.4 (≈ 0.734 µM) | 0.08 (≈ 0.147 µM) | 2 (≈ 3.67 µM) | > 50 | > 50 | 0.4 (≈ 0.734 µM) | 0.4 (≈ 0.734 µM) | 2 (≈ 3.67 µM) |  |
